Results: US20230220224A1, “AQUEOUS DISPERSION AND IMAGE RECORDING METHOD” (FUJIFILM CORPORATION, priority 2020, published 2023)

Details: in water at 20° C.

| SMILES | Neutralizer Solubility in water [g/100 mL] |
| --- | --- |
| CC(C)NC(C)C [DIPA, diisopropylamine] | 10 |
| CN1C(C)(C)CC(O)CC1(C)C [Example 4-OH-PMP, 4-hydroxy-1,2,2,6,6-pentamethylpiperidine] | 4.8 |
